Measurements as given in PubChem BioAssay (NCI).
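Five concentrations, 48 hours, 96-well plates. GI50 is the concentration that inhibits growth by half. TGI marks complete inhibition of growth.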

How the values were obtained:
Test in all cases: growth of human tumour cells (NCI), 48 h
[1] = tested on: A549 NSCLC
[2] = tested on: SW-620 colon
[3] = tested on: NCI-H522 lung
[4] = tested on: HCT-116 colon
[5] = tested on: SF-268 CNS
[6] = tested on: RXF 393 renal
[7] = tested on: SN12C renal
[8] = tested on: RPMI-8226 leukemia
[9] = tested on: NCI/ADR-RES ovarian
[10] = tested on: HOP-92 NSCLC

| Compound | TGI [1] [µM] | TGI [2] [µM] | TGI [3] [µM] | TGI [4] [µM] | TGI [5] [µM] | TGI [6] [µM] | TGI [7] [µM] | TGI [8] [µM] | GI50 [1] [µM] | GI50 [2] [µM] | GI50 [3] [µM] | GI50 [8] [µM] | GI50 [4] [µM] | GI50 [5] [µM] | GI50 [6] [µM] | GI50 [9] [µM] | TGI [9] [µM] | GI50 [7] [µM] | TGI [10] [µM] | GI50 [10] [µM] |
| --- | --- | --- | --- | --- | --- | --- | --- | --- | --- | --- | --- | --- | --- | --- | --- | --- | --- | --- | --- | --- |
| COc1ccc(C/C(=N/O)C(=O)NCCc2cc(Br)c(OCCCN(C)C)c(Br)c2)cc1Br | 38.4 | 31.8 | 31.5 | 28 | 39.4 | 38.5 | 33.8 | – | – | – | – | – | – | – | – | – | – | – | – | – |
| CN1C(=O)CCC1(O)C1C=CC=CC1 (stereo not drawn) | > 100 | > 100 | > 100 | > 100 | > 100 | > 100 | > 100 | > 100 | – | – | – | – | – | – | – | – | – | – | – | – |
| COc1cc(C2Cc3ncccc3-c3[nH]c(=O)c4cccnc4c32)cc(OC)c1OC (stereo not drawn) | > 100 | > 100 | 0.635 | > 100 | > 100 | 2.01 | > 100 | > 100 | 0.825 | 0.412 | 0.204 | 0.68 | 0.456 | 0.67 | 0.289 | 2.16 | > 100 | 1.19 | – | – |
| O=C1NC(Cc2ccc(O)cc2)C(=O)N2CCCC12 (stereo not drawn) | > 100 | > 100 | > 100 | > 100 | > 100 | > 100 | > 100 | > 100 | – | – | – | – | – | – | – | – | – | – | > 100 | – |
| CCOC(=O)C1Cc2c(cc3c4c(cccc24)N(C(C)=O)C3)N(C)C1 (stereo not drawn) | > 100 | > 100 | 1.3 | > 100 | > 100 | 44.7 | > 100 | > 100 | – | – | – | – | – | – | – | – | – | – | 99.7 | – |
| Cn1c2c(c3ccccc31)CCN(CCCCN1CCCCC1)C2=O | > 100 | > 100 | > 100 | > 100 | > 100 | > 100 | > 100 | > 100 | – | – | – | – | – | – | – | – | – | – | > 100 | – |
| N#Cc1c(-c2ccc(Cl)c(Cl)c2)c(-c2ccc(Cl)c(Cl)c2)nn(CC(=O)O)c1=O | > 100 | > 100 | – | > 100 | – | 53.9 | > 100 | > 100 | – | – | – | – | – | – | – | – | – | – | > 100 | – |
| Cn1cc(C(=O)c2ccccc2)c2ccccc2c1=O | > 100 | > 100 | > 100 | > 100 | > 100 | > 100 | > 100 | > 100 | – | – | – | – | – | – | – | – | – | – | > 100 | – |
| COc1ccc(NC(=O)C(=O)c2c(O)c3ccc(O)cc3oc2=O)c([N+](=O)[O-])c1 | > 100 | > 100 | > 100 | > 100 | > 100 | > 100 | – | – | – | – | – | – | – | – | – | – | – | – | > 100 | – |
| COc1ccc(C(c2cc(OC)c(OC)c(OC)c2)n2ccnc2)cc1O (stereo not drawn) | > 100 | > 100 | 0.76 | > 100 | > 100 | – | > 100 | > 100 | 0.838 | 0.387 | 0.247 | 0.385 | 0.249 | 0.731 | – | 1.92 | > 100 | 0.91 | > 100 | 28.6 |
| Cc1nc(-n2nc(-c3ccccc3)cc2-c2ccccc2)sc1C(=O)/C=C/c1ccc(/C=C/C(=O)c2sc(-n3nc(-c4ccccc4)cc3-c3ccccc3)nc2C)cc1 | > 100 | > 100 | 34.4 | 37.4 | 51.6 | 42.9 | 43.5 | – | – | – | – | – | – | – | – | – | – | – | – | – |
| CCCCCCCCCCCCOC1C(CNC(=O)C2OC3OC(C)(C)OC3C2NC(=O)Nc2ccc(CC(=O)OC)cc2)OC2OC(C)(C)OC21 (stereo not drawn) | > 100 | > 100 | > 100 | > 100 | > 100 | – | > 100 | > 100 | > 100 | > 100 | > 100 | > 100 | 12.5 | > 100 | – | > 100 | > 100 | > 100 | > 100 | > 100 |
| O=C(NCCCCCCCCCCCCNC(=O)c1cccc2ccccc12)c1cccc2ccccc12 | > 100 | > 100 | > 100 | > 100 | > 100 | > 100 | > 100 | > 100 | – | – | – | – | – | – | – | – | – | – | > 72.1 | – |
| COC(=O)C(C(=O)C(=O)Nc1c(C)cccc1C)c1cnc2ccccc2n1 (stereo not drawn) | > 100 | > 100 | > 100 | > 100 | > 100 | > 100 | > 100 | > 100 | – | – | – | – | – | – | – | – | – | – | > 100 | – |
| Cc1cc(O)c(=O)cc2c1C[C@H]1CC(C)(C)/C=C/C[C@]3(C)Oc4cc(=O)c(O)cc(C)c4C[C@H]3C[C@H](O)[C@@]1(C)O2 | 2.13 | > 100 | 0.0853 | > 100 | > 63.1 | – | > 29.2 | 2.97 | < 0.01 | < 0.01 | 0.0192 | 0.0185 | < 0.01 | < 0.01 | – | < 0.01 | – | < 0.0133 | – | – |
| COC(=O)CC(NC(=O)OCc1ccccc1)C(C(C)=O)C(=O)OCc1ccccc1 (stereo not drawn) | > 31.6 | > 31.6 | > 31.6 | > 31.6 | > 31.6 | – | > 31.6 | > 31.6 | – | – | – | – | – | – | – | – | – | – | > 31.6 | – |
| CCC(C)[C@H]1O[C@]2(CC[C@@H]1C)C[C@@H]1C[C@@H](C/C=C(\C)[C@@H](OC3C[C@H](OC)C(O[C@H]4C[C@H](OC)[C@@H](O)[C@H](C)O4)[C@H](C)O3)[C@@H](C)/C=C/C=C3\CO[C@@H]4[C@H](O)C(C)=C[C@@H](C(=O)O1)[C@]34O)O2 (stereo partly drawn) | 11.3 | 13.8 | – | 10.7 | 15.6 | 2.81 | 11.4 | 14.9 | 2.07 | 3.44 | – | 2.95 | 2.72 | 4.14 | 1.37 | 3.43 | 13.7 | 3.08 | 8.18 | 1.98 |
| Fc1cc2[nH]ncc2c2c3c(c(-c4cn[nH]c4C(F)(F)F)nc12)CCCC3 | > 100 | > 100 | 9.4 | > 100 | 5.86 | 2.39 | 8.63 | > 100 | 2.06 | 1.36 | 1.62 | 1.56 | 0.923 | 1.97 | 1.08 | 4.95 | 43.4 | 1.7 | – | – |
